Assays:
[1] = target: PHD2 enzyme (residues 181-417) (Homo sapiens (Human), UniProt Q9GZT9); assay: Inhibition of PHD enzyme (LC/MS peptide hydroxylation assay); format: biochemical; conditions: PHD2 (residues 181-417) 5 nM, 60 min pre-incubation; -log(IC50), IC50 molar
Method in brief: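 PHD2 (5 nM final) preincubated with inhibitor 60 min at RT in 50 mM HEPES, 50 mM KCl, 0.5 mM TCEP, 2 uM FeCl2, 0.1 mg/ml BSA, pH 7.3. Reaction started with biotin-peptide (1 uM), 2-oxoglutarate (2 uM), ascorbate (1 mM), quenched at 60 min; hydroxylated product by LC/MS, reported as pIC50.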

[2] = tested on: HIF1a protein in H9c2 rat cardiomyocytes; assay: Cell-based HIF-alpha stabilization assay (inhibition of PHD in cells); conditions: Rattus norvegicus, H9c2, 24 h, 24 hrs compound incubation, HIF1a protein by ELISA, read-out: Inhibition of PHD in cells (pEC50) (converted)
Method in brief: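 Rat H9c2 cardiomyocytes, cultured 24 h, were treated 24 h with an 11-point serial dilution of compound. HIF1a in whole-cell lysates was quantified by ELISA as % of the maximal desferrioxamine response. EC50 came from curve fitting; EC50pos is the concentration reaching 50% of the desferrioxamine maximum.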

PHD2 enzyme (residues 181-417), sequence (Q9GZT9 181-417): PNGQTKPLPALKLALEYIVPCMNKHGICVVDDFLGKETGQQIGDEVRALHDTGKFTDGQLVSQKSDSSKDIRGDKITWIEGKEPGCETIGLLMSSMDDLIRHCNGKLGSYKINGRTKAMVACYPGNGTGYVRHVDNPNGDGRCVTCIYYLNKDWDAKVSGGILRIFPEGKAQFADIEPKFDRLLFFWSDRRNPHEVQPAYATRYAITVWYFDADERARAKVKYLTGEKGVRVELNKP

| PHD Inhibition (pIC50) [1] | SMILES | EC50 [2] |
| --- | --- | --- |
| 7.08 | N#Cc1ccc(-c2cnn(-c3ccc(C(=O)NC4CCN(C5CC5)CC4)cn3)c2O)cc1 [Example 93, 6-(4-(4-cyanophenyl)-5-hydroxy-1H-pyrazol-1-yl)-N-(1-cyclopropylpiperidin-4-yl)nicotinamide] | 871 nM |
| 7.9 | Cc1cc(C#N)ccc1-c1cnn(-c2ccc(C(=O)NCC3CCN(C)CC3)cn2)c1O [Example 94, 6-(4-(4-cyano-2-methylphenyl)-5-hydroxy-1H-pyrazol-1-yl)-N-((1-methylpiperidin-4-yl)methyl)nicotinamide] | 93.3 nM |
| 7.9 | Cc1cc(C#N)ccc1-c1cnn(-c2ccc(C(=O)NCCCN(C)C)cn2)c1O [Example 95, 6-(4-(4-cyano-2-methylphenyl)-5-hydroxy-1H-pyrazol-1-yl)-N-(3-(dimethylamino)propyl)nicotinamide] | 83.2 nM |
| 8 | Cc1cc(C#N)ccc1-c1cnn(-c2ccc(C(=O)NCC3CCN(C)C3)cn2)c1O (stereo not drawn) [Example 96, 6-(4-(4-cyano-2-methylphenyl)-5-hydroxy-1H-pyrazol-1-yl)-N-((1-methylpyrrolidin-3-yl)methyl)nicotinamide] | 56.2 nM |
| 8 | Cc1cc(C#N)ccc1-c1cnn(-c2ccc(C(=O)NCCCN3CCCCC3C)cn2)c1O (stereo not drawn) [Example 97, 6-(4-(4-cyano-2-methylphenyl)-5-hydroxy-1H-pyrazol-1-yl)-N-(3-(2-methylpiperidin-1-yl)propyl)nicotinamide] | 56.2 nM |
| 7.9 | CCN1CCC(NC(=O)c2ccc(-n3ncc(-c4ccc(C#N)cc4C)c3O)nc2)CC1 [Example 98, 6-(4-(4-cyano-2-methylphenyl)-5-hydroxy-1H-pyrazol-1-yl)-N-(1-ethylpiperidin-4-yl)nicotinamide] | 120 nM |
| 7.9 | Cc1cc(C#N)ccc1-c1cnn(-c2ccc(C(=O)NCCCN3CCCCC3)cn2)c1O [Example 99, 6-(4-(4-cyano-2-methylphenyl)-5-hydroxy-1H-pyrazol-1-yl)-N-(3-(piperidin-1-yl)propyl)nicotinamide] | 53.7 nM |
| 8.1 | Cc1cc(C#N)ccc1-c1cnn(-c2ccc(C(=O)NC3CCN(C)CC3)cn2)c1O [Example 100, 6-(4-(4-cyano-2-methylphenyl)-5-hydroxy-1H-pyrazol-1-yl)-N-(1-methylpiperidin-4-yl)nicotinamide] | 75.9 nM |
| 8.1 | Cc1cc(C#N)ccc1-c1cnn(-c2ccc(C(=O)NCC3CN(C)CCO3)cn2)c1O (stereo not drawn) [Example 101, 6-(4-(4-cyano-2-methylphenyl)-5-hydroxy-1H-pyrazol-1-yl)-N-((4-methylmorpholin-2-yl)methyl)nicotinamide] | 158 nM |
| 7.9 | Cc1cc(C#N)ccc1-c1cnn(-c2ccc(C(=O)NCCC3CCCN3C)cn2)c1O (stereo not drawn) [Example 102, 6-(4-(4-cyano-2-methylphenyl)-5-hydroxy-1H-pyrazol-1-yl)-N-(2-(1-methylpyrrolidin-2-yl)ethyl)nicotinamide] | 58.9 nM |
| 8.1 | COC[C@H]1CCC[C@H]1NC(=O)c1ccc(-n2ncc(-c3ccc(C#N)cc3C)c2O)nc1 [Example 103, 6-(4-(4-cyano-2-methylphenyl)-5-hydroxy-1H-pyrazol-1-yl)-N-((1R,2S)-2-(methoxymethyl)cyclopentyl)nicotinamide] | 178 nM |
| 8.2 | Cc1cc(C#N)ccc1-c1cnn(-c2ccc(C(=O)NCCCN3CCOCC3)cn2)c1O [Example 104, 6-(4-(4-cyano-2-methylphenyl)-5-hydroxy-1H-pyrazol-1-yl)-N-(3-morpholinopropyl)nicotinamide] | 95.5 nM |
| 8 | Cc1cc(C#N)ccc1-c1cnn(-c2ccc(C(=O)NCCCN3CCCC3)cn2)c1O [Example 105, 6-(4-(4-cyano-2-methylphenyl)-5-hydroxy-1H-pyrazol-1-yl)-N-(3-(pyrrolidin-1-yl)propyl)nicotinamide] | 61.7 nM |
| 8 | Cc1cc(C#N)ccc1-c1cnn(-c2ccc(C(=O)NCCCn3ccnc3)cn2)c1O [Example 106, N-(3-(1H-imidazol-1-yl)propyl)-6-(4-(4-cyano-2-methylphenyl)-5-hydroxy-1H-pyrazol-1-yl)nicotinamide] | 355 nM |
| 8.4 | CNC(=O)c1ccc(-n2ncc(-c3ccc(C#N)cc3C)c2O)nc1 [Example 107, 6-(4-(4-cyano-2-methylphenyl)-5-hydroxy-1H-pyrazol-1-yl)-N-methylnicotinamide] | 129 nM |
| 8.3 | CCNC(=O)c1ccc(-n2ncc(-c3ccc(C#N)cc3C)c2O)nc1 [Example 108] | 110 nM |
| 7.7 | CN(C)CC(C)(C)NC(=O)c1ccc(-n2ncc(-c3ccc(C#N)cc3)c2O)nc1 [Example 109, 6-(4-(4-cyanophenyl)-5-hydroxy-1H-pyrazol-1-yl)-N-(1-(dimethylamino)-2-methylpropan-2-yl)nicotinamide] | 1200 nM |
| 8.1 | COC[C@H]1CCC[C@H]1NC(=O)c1ccc(-n2ncc(-c3ccc(C#N)cc3)c2O)nc1 [Example 110, 6-(4-(4-cyanophenyl)-5-hydroxy-1H-pyrazol-1-yl)-N-((1R,2S)-2-(methoxymethyl)cyclopentyl)nicotinamide] | 1230 nM |
| 7.8 | CN1CCOC(CNC(=O)c2ccc(-n3ncc(-c4ccc(C#N)cc4)c3O)nc2)C1 (stereo not drawn) [Example 111, 6-(4-(4-cyanophenyl)-5-hydroxy-1H-pyrazol-1-yl)-N-((4-methylmorpholin-2-yl)methyl)nicotinamide] | 2140 nM |
| 7.32 | CCOCCNC(=O)c1ccc(-n2ncc(-c3ccc(C#N)cc3)c2O)nc1 [Example 112, 6-(4-(4-cyanophenyl)-5-hydroxy-1H-pyrazol-1-yl)-N-(2-ethoxyethyl)nicotinamide] | 1380 nM |
| 7.22 | CC(NC(=O)c1ccc(-n2ncc(-c3ccc(C#N)cc3)c2O)nc1)C1CCCO1 (stereo not drawn) [Example 113, 6-(4-(4-cyanophenyl)-5-hydroxy-1H-pyrazol-1-yl)-N-(1-(tetrahydrofuran-2-yl)ethyl)nicotinamide] | 1380 nM |
| 6.55 | COCCC(C)NC(=O)c1ccc(-n2ncc(-c3ccnc(OC)c3)c2O)nc1 (stereo not drawn) [Example 114, 6-(5-hydroxy-4-(2-methoxypyridin-4-yl)-1H-pyrazol-1-yl)-N-(4-methoxybutan-2-yl)nicotinamide] | 257 nM |
| 6.91 | CC(C)N1CCC(NC(=O)c2ccc(-n3ncc(-c4ccc(C#N)cc4)c3O)nc2)CC1 [Example 115, 6-(4-(4-cyanophenyl)-5-hydroxy-1H-pyrazol-1-yl)-N-(1-isopropylpiperidin-4-yl)nicotinamide] | 1820 nM |
| 7.42 | N#Cc1ccc(-c2cnn(-c3ccc(C(=O)NCCCc4nccs4)cn3)c2O)cc1 [Example 116, 6-(4-(4-cyanophenyl)-5-hydroxy-1H-pyrazol-1-yl)-N-(3-(thiazol-2-yl)propyl)nicotinamide] | 741 nM |
